Experimental data from PMC8286840, “Identifying SARS-CoV-2 antiviral compounds by screening for small molecule inhibitors of Nsp3 papain-like protease” (Biochemical Journal, 2021).
Where a name gives a salt, the structure may show the parent alone. Read-outs that look alike come from different tables or passages of the source.

Experiments:
[1] = molecular target: T1, SARS-CoV-2 PLpro (nsp3 1564–1878) (Severe acute respiratory syndrome coronavirus 2, UniProt P0DTD1); test: biochemical; set-up: FRET-quenched peptide (Pro3) cleavage by PLpro, 10 min pre-incubation, slope over 20 min, normalised to no-compound control; details: read-out: % of control remaining
[2] = molecular target: T1, SARS-CoV-2 PLpro (nsp3 1564–1878); test: biochemical; set-up: FRET-quenched peptide (Pro3) cleavage by PLpro, 10 min pre-incubation, slope over 20 min, normalised to no-compound control; details: read-out: % of control remaining; remark: listed apart in the source

SMILES: c1ccc2c3c([nH]c2c1)[C@H]1[C@@H]2CC[C@@H]([C@@H]4CCCN[C@@H]42)N1CC3
- remaining activity at 1.25 µM ([1]; Well no.=3163, low concentration screen): 105%
- remaining activity at 3.75 µM ([2]; Well no.=3163, high concentration screen): 103%

SMILES: CC[C@H]1CN2CCc3cc(OC)c(OC)cc3[C@@H]2C[C@@H]1C[C@H]1NCCc2cc(OC)c(OC)cc21
- remaining activity at 1.25 µM ([1]; Well no.=3424, low concentration screen): 92.3%
- remaining activity at 3.75 µM ([2]; Well no.=3424, high concentration screen): 98%

SMILES: COc1ccc2cc3[n+](cc2c1OC)CCc1cc2c(cc1-3)OCO2
- remaining activity at 1.25 µM ([1]; Well no.=3515, low concentration screen): 93.4%
- remaining activity at 3.75 µM ([2]; Well no.=3515, high concentration screen): 92.9%

SMILES: NC(=O)COc1c(F)cc(SCCNS(=O)(=O)c2ccccc2)cc1F
- remaining activity at 1.25 µM ([1]; Well no.=5925, low concentration screen): 94.7%
- remaining activity at 3.75 µM ([2]; Well no.=5925, high concentration screen): 93.7%

SMILES: C[C@H]([C@H](O)CCC(C)(C)O)[C@H]1CC[C@@]2(O)C3=CC(=O)[C@@H]4C[C@@H](O)[C@@H](O)C[C@]4(C)[C@H]3CC[C@]12C
- remaining activity at 1.25 µM ([1]; Well no.=3603, low concentration screen): 101%
- remaining activity at 3.75 µM ([2]; Well no.=3603, high concentration screen): 106%

SMILES: N#C/C(=C(/N)Sc1ccc(N)cc1)c1ccccc1C(F)(F)F
- remaining activity at 1.25 µM ([1]; Well no.=2480, low concentration screen): 98.7%
- remaining activity at 3.75 µM ([2]; Well no.=2480, high concentration screen): 98.3%

SMILES: C=C[C@]12CN(C)[C@@H]3[C@H]4CO[C@H](C[C@H]41)[C@]1(C(=O)Nc4ccccc41)[C@@H]32
- remaining activity at 1.25 µM ([1]; Well no.=3460, low concentration screen): 98%
- remaining activity at 3.75 µM ([2]; Well no.=3460, high concentration screen): 99%

SMILES: OC[C@@H]1[C@@H](O)[C@H](O)[C@H]2[C@@H](O)CCN21
- remaining activity at 1.25 µM ([1]; Well no.=3085, low concentration screen): 104%
- remaining activity at 3.75 µM ([2]; Well no.=3085, high concentration screen): 105%

SMILES: CC(CN1c2ccccc2Sc2ccccc21)N(C)C (stereo not shown)
- remaining activity at 1.25 µM ([1]; Well no.=3844, low concentration screen): 101%
- remaining activity at 3.75 µM ([2]; Well no.=3844, high concentration screen): 97.9%

SMILES: COc1cc2c3cc1Oc1c(OC)c(OC)cc4c1[C@@H](Cc1ccc(O)c(c1)Oc1ccc(cc1)C[C@@H]3N(C)CC2)N(C)CC4
- remaining activity at 1.25 µM ([1]; Well no.=3633, low concentration screen): 103%
- remaining activity at 3.75 µM ([2]; Well no.=3633, high concentration screen): 103%

SMILES: N[C@]1(C(=O)O)CC[C@H](C(=O)O)C1
- remaining activity at 1.25 µM ([1]; Well no.=64, low concentration screen): 102%
- remaining activity at 3.75 µM ([2]; Well no.=64, high concentration screen): 101%

SMILES: O=C1C[C@@H]2OCC=C3CN4CC[C@]56c7ccccc7N1[C@H]5[C@H]2[C@H]3C[C@H]46
- remaining activity at 1.25 µM [1]: 94.4%
- remaining activity at 3.75 µM [2]: 94.7%

SMILES: CC[C@H]1CN2CCc3cc(OC)c(OC)cc3[C@@H]2C[C@@H]1C[C@H]1NCCc2cc(O)c(OC)cc21
- remaining activity at 1.25 µM ([1]; Well no.=3501, low concentration screen): 96.1%
- remaining activity at 3.75 µM ([2]; Well no.=3501, high concentration screen): 88.7%

SMILES: CN1[C@@H](CC(=O)c2ccccc2)CCC[C@H]1C[C@H](O)c1ccccc1
- remaining activity at 1.25 µM ([1]; Well no.=3438, low concentration screen): 97.9%
- remaining activity at 3.75 µM ([2]; Well no.=3438, high concentration screen): 97.7%

SMILES: CN(C/C=C/C#CC(C)(C)C)Cc1cccc2ccccc12
- remaining activity at 1.25 µM ([1]; Well no.=3894, low concentration screen): 102%
- remaining activity at 3.75 µM ([2]; Well no.=3894, high concentration screen): 103%

SMILES: CC1(C)CCC2=C(O1)c1ccccc1C(=O)C2=O
- remaining activity at 1.25 µM ([1]; Well no.=3375, low concentration screen): 95.6%
- remaining activity at 1.25 µM ([1]; Well no.=3845, low concentration screen): 96.1%
- remaining activity at 3.75 µM ([2]; Well no.=3375, high concentration screen): 84.1%
- remaining activity at 3.75 µM ([2]; Well no.=3845, high concentration screen): 91.8%

SMILES: CC[C@H](CC[C@@H](C)[C@H]1CC[C@H]2[C@@H]3CC=C4C[C@@H](O)CC[C@]4(C)[C@H]3CC[C@]12C)C(C)C
- remaining activity at 1.25 µM ([1]; Well no.=3416, low concentration screen): 93.1%
- remaining activity at 3.75 µM ([2]; Well no.=3416, high concentration screen): 96.8%

SMILES: O=C(O)[C@H]1NCCC[C@H]1C(=O)O
- remaining activity at 1.25 µM ([1]; Well no.=1161, low concentration screen): 106%
- remaining activity at 3.75 µM ([2]; Well no.=1161, high concentration screen): 106%

SMILES: C[C@H]1CCC[C@H](O)CCCCCc2cc(O)cc(O)c2C(=O)O1
- remaining activity at 1.25 µM ([1]; Well no.=3340, low concentration screen): 91.6%
- remaining activity at 3.75 µM ([2]; Well no.=3340, high concentration screen): 94%

SMILES: COc1ccc2c3c1O[C@H]1C[C@@H](O)C=C[C@@]31CCN(C)C2
- remaining activity at 1.25 µM ([1]; Well no.=3677, low concentration screen): 98.7%
- remaining activity at 3.75 µM ([2]; Well no.=3677, high concentration screen): 103%

SMILES: C[n+]1cccc(C(=O)O)c1
- remaining activity at 1.25 µM ([1]; Well no.=3390, low concentration screen): 94.5%
- remaining activity at 3.75 µM ([2]; Well no.=3390, high concentration screen): 99.5%

SMILES: COC(=O)[C@@H]1[C@H]2C[C@H]3c4[nH]c5ccccc5c4CCN3C[C@@H]2CC[C@@H]1O
- remaining activity at 1.25 µM ([1]; Well no.=3378, low concentration screen): 86.8%
- remaining activity at 3.75 µM ([2]; Well no.=1699, high concentration screen): 103%
- remaining activity at 3.75 µM ([2]; Well no.=3378, high concentration screen): 87.3%

SMILES: O=C(O)CN(CCN(CC(=O)O)Cc1ccccc1O)Cc1ccccc1O
- remaining activity at 1.25 µM ([1]; Well no.=3846, low concentration screen): 106%
- remaining activity at 3.75 µM ([2]; Well no.=3846, high concentration screen): 103%

SMILES: Cc1cc(C(C)Nc2ccccc2)c2nc(N3CCOCC3)cc(=O)n2c1 (stereo not shown)
- remaining activity at 1.25 µM ([1]; Well no.=2577, low concentration screen): 101%
- remaining activity at 3.75 µM ([2]; Well no.=2577, high concentration screen): 101%

SMILES: C[N+]1(C)CCC[C@H]1C(=O)O
- remaining activity at 1.25 µM ([1]; Well no.=3118, low concentration screen): 107%
- remaining activity at 3.75 µM ([2]; Well no.=3118, high concentration screen): 105%

SMILES: O=c1ccn([C@@H]2O[C@@]3(CO)CO[C@@H]2[C@@H]3O)c(=O)[nH]1
- remaining activity at 1.25 µM ([1]; Well no.=7864, low concentration screen): 98.5%
- remaining activity at 3.75 µM ([2]; Well no.=7864, high concentration screen): 92.8%

SMILES: CCCN1CC[C@@H]2c3cc(O)ccc3CC[C@@H]21
- remaining activity at 1.25 µM ([1]; Well no.=1044, low concentration screen): 98.9%
- remaining activity at 3.75 µM ([2]; Well no.=1044, high concentration screen): 100%

SMILES: CC(C)=CC[C@@H](OC(=O)C=C(C)C)C1=CC(=O)c2c(O)ccc(O)c2C1=O
- remaining activity at 1.25 µM ([1]; Well no.=3305, low concentration screen): 89.6%
- remaining activity at 3.75 µM ([2]; Well no.=3305, high concentration screen): 85.3%

SMILES: CCN(CC)CCCC(C)Nc1nc(C)cc(Nc2ccc3nc(C)cc(N)c3c2)n1 (stereo not shown) [NSC 23766 (trihydrochloride)]
- remaining activity at 1.25 µM ([1]; Well no.=7865, low concentration screen): 98.1%

SMILES: Nc1[nH]nc2nc3ccccc3nc12 [NSC 693868 - 1H-Pyrazolo[3,4-b]quinoxalin-3-amine]
- remaining activity at 1.25 µM ([1]; Well no.=2476, low concentration screen): 95.5%

SMILES: CN(C)C(=O)Oc1cccc([N+](C)(C)C)c1 [Neostigmine bromide]
- remaining activity at 1.25 µM ([1]; Well no.=853, low concentration screen): 105%

SMILES: O=C1CCCN1CC#CCN1CCCC1 [Oxotremorine sesquifumarate salt]
- remaining activity at 1.25 µM ([1]; Well no.=946, low concentration screen): 103%

SMILES: COc1cc2nc(N3CCN(C(=O)c4ccco4)CC3)nc(N)c2cc1OC [Prazosin hydrochloride]
- remaining activity at 1.25 µM ([1]; Well no.=1349, low concentration screen): 98.8%

SMILES: CN(C)CCCN1c2ccccc2Sc2ccccc21 [Promazine (hydrochloride)]
- remaining activity at 1.25 µM ([1]; Well no.=6711, low concentration screen): 103%

SMILES: CC(CN1c2ccccc2Sc2ccccc21)N(C)C (stereo not shown) [Promethazine (hydrochloride)]
- remaining activity at 1.25 µM ([1]; Well no.=6811, low concentration screen): 99.3%

SMILES: CCCCC[C@H](O)/C=C/[C@@H]1[C@@H](C/C=C\CCCC(=O)O)[C@@H](O)C[C@H]1O [Prostaglandin F2a]
- remaining activity at 1.25 µM ([1]; Well no.=3094, low concentration screen): 107%

SMILES: Cc1cc2c(cc1Cl)N(C(=O)Nc1ccc(Oc3cccnc3C)nc1)CC2 [SB 242084]
- remaining activity at 1.25 µM ([1]; Well no.=7137, low concentration screen): 103%

SMILES: CC1(C)[C@H](C(=O)O)N2C(=O)C[C@H]2S1(=O)=O [Sulbactam]
- remaining activity at 1.25 µM ([1]; Well no.=2023, low concentration screen): 106%
- remaining activity at 1.25 µM ([1]; Well no.=7450, low concentration screen): 101%

SMILES: CC(=O)O[C@H]1C(=O)[C@@]2(C)[C@H]([C@H](OC(=O)c3ccccc3)[C@]3(O)C[C@H](OC(=O)[C@H](O)[C@@H](NC(=O)c4ccccc4)c4ccccc4)C(C)=C1C3(C)C)[C@]1(OC(C)=O)CO[C@@H]1C[C@@H]2O [Taxol]
- remaining activity at 1.25 µM ([1]; Well no.=1180, low concentration screen): 92.6%
- remaining activity at 1.25 µM ([1]; Well no.=1999, low concentration screen): 103%
- remaining activity at 1.25 µM ([1]; Well no.=3180, low concentration screen): 106%

SMILES: Cn1c(=O)c2nc[nH]c2n(C)c1=O [Theophylline]
- remaining activity at 1.25 µM ([1]; Well no.=1235, low concentration screen): 97.1%
- remaining activity at 1.25 µM ([1]; Well no.=6249, low concentration screen): 110%
- remaining activity at 1.25 µM ([1]; Well no.=8277, low concentration screen): 98.3%
